Calls of active or inactive are those of the source. No cut-off for these calls is given here.
How the values were obtained:
[1] = target: T1, ATP-dependent translocase ABCB1 (Homo sapiens, UniProt P08183); assay: Inhibition of P-gp in human U87-TxR cells assessed as increase in Rho123 accumulation at 5 uM measured after 30 mins by flow cytometry; format: cell-based; conditions: 0.5 h
MRC5 = assay: Cytotoxicity against human MRC5 cells assessed as reduction in cell viability incubated for 72 hrs by MTT assay; format: cell-based; conditions: MRC5, 72 h
SH-SY5Y = assay: Inhibition of TrxR in human SH-SY5Y cell lysates at 5 uM using DTNB as substrate preincubated for 15 mins followed by substrate addition and measured for 20 mins by colorimetry relative to control; format: subcellular; conditions: time 35.0 min
[2] = target: T2, Thioredoxin reductase 1, cytoplasmic (Homo sapiens) (UniProt Q16881); assay: Inhibition of TrxR1 in human U87 cells assessed as increase in RONS level at 10 uM measured after 24 hrs by dihydrorhodamine 123 dye based flow cytometry; format: cell-based
T2 sequence (whole entry): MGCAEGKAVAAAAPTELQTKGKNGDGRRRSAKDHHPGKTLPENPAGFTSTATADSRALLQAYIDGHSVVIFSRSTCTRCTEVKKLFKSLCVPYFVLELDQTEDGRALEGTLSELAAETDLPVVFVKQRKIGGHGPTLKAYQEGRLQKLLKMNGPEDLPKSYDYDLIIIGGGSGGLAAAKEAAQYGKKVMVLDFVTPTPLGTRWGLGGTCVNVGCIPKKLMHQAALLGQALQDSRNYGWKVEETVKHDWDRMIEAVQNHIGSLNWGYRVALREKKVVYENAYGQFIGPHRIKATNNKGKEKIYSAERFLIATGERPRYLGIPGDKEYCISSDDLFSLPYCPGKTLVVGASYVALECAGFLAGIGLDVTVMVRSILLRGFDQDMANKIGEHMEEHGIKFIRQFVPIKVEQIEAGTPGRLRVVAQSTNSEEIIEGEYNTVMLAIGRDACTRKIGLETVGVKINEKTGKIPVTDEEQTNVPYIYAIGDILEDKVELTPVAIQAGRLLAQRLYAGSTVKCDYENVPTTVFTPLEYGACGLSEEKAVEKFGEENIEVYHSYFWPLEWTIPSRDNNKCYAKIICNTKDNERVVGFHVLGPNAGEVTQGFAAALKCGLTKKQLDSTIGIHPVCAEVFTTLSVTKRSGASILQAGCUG

[3] = Selectivity index, ratio of IC50 for human MRC5 cells to IC50 for human U87-TxR cells; format: toxicity; conditions: MRC5 cells versus U87-TxR cells, read-out: Ratio IC50
U-87 MG = assay: Cytotoxicity against human U87 cells assessed as reduction in cell viability incubated for 72 hrs by MTT assay; format: functional, cell-based, U-87MG ATCC
[4] = target: T3, Thioredoxin reductase 1, cytoplasmic (Rattus norvegicus, UniProt O89049); assay: Inhibition of recombinant rat TrxR1 using DTNB as substrate preincubated for 15 mins followed by substrate addition and measured for 20 mins by colorimetry
T3 sequence (O89049 whole entry): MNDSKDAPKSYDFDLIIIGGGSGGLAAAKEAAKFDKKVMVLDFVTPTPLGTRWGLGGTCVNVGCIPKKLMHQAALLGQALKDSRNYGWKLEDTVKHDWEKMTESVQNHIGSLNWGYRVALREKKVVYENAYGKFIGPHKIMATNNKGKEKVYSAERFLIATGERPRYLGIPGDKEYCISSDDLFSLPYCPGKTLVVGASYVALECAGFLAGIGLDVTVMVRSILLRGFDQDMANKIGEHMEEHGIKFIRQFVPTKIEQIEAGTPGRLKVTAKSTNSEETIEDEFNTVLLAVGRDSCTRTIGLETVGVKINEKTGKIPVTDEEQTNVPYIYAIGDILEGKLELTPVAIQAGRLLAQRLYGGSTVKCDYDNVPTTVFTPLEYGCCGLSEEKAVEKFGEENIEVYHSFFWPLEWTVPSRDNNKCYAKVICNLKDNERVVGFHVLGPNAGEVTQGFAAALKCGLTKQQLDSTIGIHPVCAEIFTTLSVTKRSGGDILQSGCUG

[5] = target: T2, Thioredoxin reductase 1, cytoplasmic (Homo sapiens); assay: Inhibition of TrxR1 in human U87-TxR cells assessed as increase in RONS level at 10 uM measured after 24 hrs by dihydrorhodamine 123 dye based flow cytometry; format: cell-based
[6] = Selectivity index, ratio of IC50 for human MRC5 cells to IC50 for human U87 cells; format: toxicity; conditions: MRC5 cells versus U87 cells, read-out: Ratio IC50
[7] = Cytotoxicity against human U87-TxR cells assessed as reduction in cell viability incubated for 72 hrs by MTT assay; format: functional, cell-based
[8] = target: T1, ATP-dependent translocase ABCB1; assay: Inhibition of P-gp in human U87-TxR cells assessed as increase in Rho123 accumulation at 2.5 uM measured after 72 hrs by flow cytometry; format: cell-based
[9] = target: T1, ATP-dependent translocase ABCB1; assay: Inhibition of P-gp in human U87-TxR cells assessed as increase in Rho123 accumulation measured after 30 mins by flow cytometry; format: cell-based; conditions: 0.5 h
[10] = target: T1, ATP-dependent translocase ABCB1; assay: Inhibition of P-gp in human U87-TxR cells assessed as increase in Rho123 accumulation at 50 nM measured after 30 mins by flow cytometry; format: cell-based; conditions: 0.5 h, 0.05 µM

T1 sequence (P08183 whole entry): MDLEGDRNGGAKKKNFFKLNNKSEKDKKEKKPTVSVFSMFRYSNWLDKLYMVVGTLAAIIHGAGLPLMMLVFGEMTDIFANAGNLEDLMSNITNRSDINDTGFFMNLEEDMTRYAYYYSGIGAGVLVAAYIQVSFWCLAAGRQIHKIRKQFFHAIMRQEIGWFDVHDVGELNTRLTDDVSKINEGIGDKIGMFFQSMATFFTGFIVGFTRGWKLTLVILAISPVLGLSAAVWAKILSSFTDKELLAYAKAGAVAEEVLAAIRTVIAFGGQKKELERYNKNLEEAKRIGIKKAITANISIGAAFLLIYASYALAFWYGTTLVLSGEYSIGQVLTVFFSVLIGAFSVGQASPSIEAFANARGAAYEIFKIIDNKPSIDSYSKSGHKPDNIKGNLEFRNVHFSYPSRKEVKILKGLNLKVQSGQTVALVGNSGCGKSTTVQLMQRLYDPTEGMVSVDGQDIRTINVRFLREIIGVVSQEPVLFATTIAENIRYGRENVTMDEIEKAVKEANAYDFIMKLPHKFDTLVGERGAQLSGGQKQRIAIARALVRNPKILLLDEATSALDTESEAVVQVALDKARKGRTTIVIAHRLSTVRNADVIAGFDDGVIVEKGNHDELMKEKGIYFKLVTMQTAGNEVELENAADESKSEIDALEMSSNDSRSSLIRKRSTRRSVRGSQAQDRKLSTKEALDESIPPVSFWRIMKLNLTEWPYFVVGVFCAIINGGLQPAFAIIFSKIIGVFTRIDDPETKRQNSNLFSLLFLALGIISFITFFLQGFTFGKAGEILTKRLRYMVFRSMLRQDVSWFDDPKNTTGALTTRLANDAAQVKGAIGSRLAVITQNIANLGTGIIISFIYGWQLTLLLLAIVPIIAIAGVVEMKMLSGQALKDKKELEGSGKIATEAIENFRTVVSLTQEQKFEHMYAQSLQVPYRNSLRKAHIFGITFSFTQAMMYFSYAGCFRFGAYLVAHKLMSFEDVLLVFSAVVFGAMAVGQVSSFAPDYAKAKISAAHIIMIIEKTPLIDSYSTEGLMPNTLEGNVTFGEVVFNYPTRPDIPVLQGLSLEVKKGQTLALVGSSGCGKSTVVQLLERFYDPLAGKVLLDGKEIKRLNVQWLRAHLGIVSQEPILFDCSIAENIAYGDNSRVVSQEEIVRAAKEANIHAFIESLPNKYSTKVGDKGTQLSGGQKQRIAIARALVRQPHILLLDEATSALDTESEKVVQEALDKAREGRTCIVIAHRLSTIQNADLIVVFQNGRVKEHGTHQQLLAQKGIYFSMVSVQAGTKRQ

inhibition (INH) [1] | inhibition (SH-SY5Y) [%] | inhibition [2] | IC50 [4] [µM] | inhibition [5] | inhibition (INH) [8] | inhibition (INH) [9] | inhibition (INH) [10] | SMILES | IC50 (MRC5) [µM] | selectivity ratio [3] | IC50 (U-87 MG) [µM] | selectivity ratio [6] | IC50 [7] [µM]
Active | 82.7 | Active | 0.59 | Active | Not Active |  |  | Cc1ccc(C(C(=O)NC(C)(C)C)N(C)CCOC(=O)/C=C/C(=O)c2ccc(F)cc2)cc1 (configuration not stated) | 14.2 | 2.2 | 6.96 | 2.2 | 6.14
Active | 50.2 | Active | 3.37 | Active | Not Active |  |  | CCN(CCOC(=O)/C=C/C(=O)c1ccc(F)cc1)C(C(=O)NC(C)(C)C)c1cccc(C)c1 (configuration not stated) | 13 | 2 | 7.07 | 2 | 6.05
Active | 68.8 | Active | 37 | Active | Not Active |  |  | Cc1ccc(C(=O)/C=C/C(=O)OCCN(C)C(C(=O)NC2CCCCC2)c2ccc(F)cc2)cc1 (configuration not stated) | 14.2 | 1.6 | 5.89 | 1.6 | 11.7
 |  |  |  | Active |  | Dose-dependent effect |  | CN(CCOC(=O)/C=C/C(=O)c1ccc(F)cc1)C(C(=O)NC(C)(C)C)c1ccc(F)cc1 (configuration not stated) | 11.8 | 1.4 | 8.9 | 1.4 | 8.54
 |  |  |  |  |  |  | Active | COc1cc2c(cc1OC)CN(CCc1ccc(NC(=O)c3cc(OC)c(OC)cc3NC(=O)c3cnc4ccccc4c3)cc1)CC2 [TARIQUIDAR] |  |  |  |  | 

Further lines, the compound ahead of its results:

SMILES | inhibition (INH) [1] | inhibition (SH-SY5Y) [%] | inhibition [2] | IC50 [4] [µM] | inhibition [5] | inhibition (INH) [8] | inhibition (INH) [9] | inhibition (INH) [10] | IC50 (MRC5) [µM] | selectivity ratio [3] | IC50 (U-87 MG) [µM] | selectivity ratio [6] | IC50 [7] [µM]
Cc1cccc(C(C(=O)NC2CCCCC2)N(C)CCOC(=O)/C=C/C(=O)c2ccc(F)cc2)c1 (configuration not stated) | Active | 53 |  | 3.2 | Active | Active |  |  | 14.1 | 1.9 | 7.02 | 1.9 | 7.77
Cc1cccc(C(C(=O)NC(C)(C)C)N(C)CCOC(=O)/C=C/C(=O)c2ccc(F)cc2)c1 (configuration not stated) | Active | 33 | Active | 1.5 | Active | Not Active |  |  | 13.3 | 1.6 | 7.89 | 1.6 | 8.41
CN(CCOC(=O)/C=C/C(=O)c1ccc(F)cc1)C(C(=O)NC(C)(C)C)c1ccccc1F (configuration not stated) | Active | 64 |  | 5 | Active | Not Active |  |  | 14.8 | 2 | 8.34 | 2 | 6.14
CN(CCOC(=O)/C=C/C(=O)c1ccc(F)cc1)C(C(=O)NC(C)(C)C)c1ccc(F)c(F)c1 (configuration not stated) | Active | 84.6 | Active | 0.19 |  | Not Active |  |  | 17.8 | 2.4 | 7.13 | 2.4 | 7.74
